Source: US8987217B2, “Modified saponins for the treatment of fungal infections” (The General Hospital Corporation, priority 2010, dated 2015)
Converted amounts (≈) assume the structure as drawn.

Tests used:
[1] = system: C. albicans strain DAY185; experiment: in vitro antifungal activity (MIC) in the co-inoculation assay, turbidity read visually; assay type: cell-based; conditions: co-inoculation assay, two-fold serial dilutions, C. albicans DAY185
Procedure: (§1) The procedure for the co-inoculation antifungal compound screen were conducted as previously described (Okoli et al., PLoS ONE, 4:e7025 (2009); Tampakakis et al., Nat Protocols, 3:1925-1931 (2008)), using the C. albicans strain DAY185 (Davis et al., Infect Immun, 68:5953-5959 (2000)) and the C. elegans glp-4;sek-1 double mutant.
The determination of the lowest concentration of the selected compounds showing in vitro antifungal activity was accomplished by following the steps detailed in the co-inoculation assay, using two-fold serial dilutions of the test compounds.

C. albicans = experiment: C. elegans-C. albicans co-inoculation assay, nematode survival; assay type: in vivo
Procedure: as §1
(§2) This assay allows simultaneous assessment of a compound's potential toxicity and the ability to promote the survival of the nematode in the presence of C. albicans, including modes of action not traditionally considered in antifungal assays such as impeding a fungal virulence factor or promoting host immune response. We performed a screen of 2,560 natural products representing a fraction of the Analyiticon Discovery compound collection (ac-discovery.com) housed at the Broad Institute of Harvard and MIT (Cambridge, Mass.). […] These natural products identified in the primary screen were retested and confirmed (FIG. 1; Table 1). […] Moreover, although the antifungal effects of some of these saponins have been reported (Sata et al., Biosci Biotechnol Biochem, 62:1904-1911 (1998); Ohtani et al., Phytochem, 33:83-86 (1993)), their efficacy against Candida spp. has not been studied.
After confirmation of these hits, dose response experiments were conducted to determine the concentration that provided maximum nematode survival. The compounds conferred a range of nematode survival from 27% (compound A6) to 93% (compounds A2, A7, A24, and A25), however, with the exception of A6, all compounds conferred a nematode survival over 65% (FIG. 1).

C. elegans = experiment: toxicity to the nematode in dose response experiments; conditions: dose response experiments, higher concentrations
From the text: as §2
Representatives of the saponins family are able to disrupt cellular membranes and the lytic activity on erythrocytes has been used as an assay for some saponins Francis et al., British Journal of Nutrition, 88:587-605 (2002)). This property is derived from the affinity of some saponins for binding cholesterol forming insoluble pores composed of the sterol and saponins (Bangham et al., Nature, 196:952-953(1962); Glauert et al., Nature, 196:953-955 (1962)). […] The dose-response experiments previously used to determine the EC50 and approximate the MIC can also indicate if the saponins maybe toxic to C. elegans and potentially to mammalian cells.

C. albicans biofilm = experiment: biofilm formation on silicone pads (dry mass); assay type: cell-based; conditions: 10 μg/mL (below the MIC), compared with caspofungin
Procedure: The minimal inhibitory concentration (MIC) was determined for strains DAY185, 98-145, 95-120 (White et al., Antimicrob Agents Chemother, 46:1704-1713 (2002)), and A15-10 (Garcia-Effron et al., Antimicrob Agents Chemother, 53:112-122 (2009)) spectrophotometrically using RPMI 1640 media (Mediatech, Inc.) following the standard CLSI microdilution protocol M27-A (National Committee for Clinical Laboratory Standards, Reference method for broth dilution susceptibility testing of yeasts. Tentative standard M27-A, Villanova, Pa. (1995)). Biofilm assays using identified compounds were conducted as previously described (Richard et al., Eukaryot Cell, 4:1493-1502 (2005)). The biofilm dry mass was determined by drying the silicone squares in a chemical hood, and weighing the resulting biofilm mass subtracting the previously weighed mass of the silicone square. […]
Caspofungin (Merck) served as a known antifungal compound control. In vitro hyphal inhibition was assessed by incubation of DAY185 in RPMI 1640 media at 37° C. […] The ability of the antifungal compound A16, at either 2 or 4 μg/mL, to induce osmotic stress was assessed using DAY185 grown in a 96 well microtiter plate containing RPMI 1640 media and NaCl, ranging in concentrations from 0-2 M in 0.25 M increments. The growth of the fungus was measured spectrophotometrically after 48 hours of growth at 35° C.

C. albicans cells = experiment: photosensitizer uptake by fluorescence spectrofluorimetry; assay type: cell-based; conditions: addition of A16 to RB, ce6, PEI-ce6
Procedure: In order to confirm that the increase in phototoxicity observed by combining the different PS with A16 is actually due to an increase of cellular uptake of the PS by the cells and to document that the antifungal efficacy of saponins against C. albicans is associated with increased permeability, the amount of dye within the cell was measured by fluorescence spectrofluorimetry.
Cell suspensions (10^8 cells/mL) were incubated in the dark as above using the same concentrations as for the PDI assays measured as μM PS equivalent (final concentration in incubation medium). Incubations were carried out in triplicate. Cell suspensions were centrifuged (12000 rpm, 1 min) and washed twice in 1 mL sterile PBS. The cell pellet was dissolved in 1.5 mL 0.1 M NaOH/1% SDS for 24 h to yield a homogenous solution. Uptake was determined by measurement of fluorescence in black 96-well flat-bottom plates (Costar) in a final volume of 200 μL using a Spectramax Gemini spectrofluorimeter (Molecular Devices) at 400 nmex/580-700 nmem for ce6, PEI-ce6 and 552 nmex/555-620 nmem for RB. Uptake values were obtained as previously described (Tegos et al., Antimicrob Agents Chemother, 50:196-203(2006)).
The cellular uptake of dye can be expressed as molecules per cell by correlation of the extracted PS concentration with the number of C. albicans cells present.

CC1CC[C@@]2(OC1)O[C@H]1CC3C4C[C@@H](O)C5C[C@@H](O[C@@H]6O[C@H](CO)[C@H](O[C@@H]7O[C@H](CO)[C@@H](O)[C@H](O[C@@H]8OC[C@@H](O)[C@H](O)[C@H]8O)[C@H]7O[C@@H]7O[C@H](CO)[C@@H](O)[C@H](O)[C@H]7O)[C@H](O)[C@H]6O)[C@H](O)C[C@]5(C)C4CC[C@]3(C)[C@H]1[C@@H]2C (stereo partly drawn) [A16, Aginoside]
MIC in vitro [1]: 47.0 mg/L (≈ 44 µM)
maximum nematode survival (C. albicans; dose response, C. albicans-infected C. elegans): 67%
EC50 in vivo (C. albicans; dose that resulted in 50% survival of C. albicans-infected nematodes): 47.0 mg/L (≈ 44 µM)
toxicity to the nematode (C. elegans): none of the concentrations used in the dose response experiment showed signs of toxicity
biofilm formation (C. albicans biofilm): able to inhibit biofilm formation
effect on uptake of PS by the cells (C. albicans cells): dramatically increased the uptake of PS
